Measurements taken from ChEMBL document CHEMBL4715854, “Discovery of Roblitinib (FGF401) as a Reversible-Covalent Inhibitor of the Kinase Activity of Fibroblast Growth Factor Receptor 4” (J Med Chem, 2020).
≈ marks a conversion by molar mass, not a printed value. One block for each compound: values may come before it.

Key:
[1] = Clearance in human liver microsome at 10 mM measured after 15 mins in presence of NADPH by LC-MS analysis; assay type: ADME; settings: liver microsomes, read-out: CLH
[2] = Cmax in mouse xenografted with human Huh-7 cells at 6 mg/kg, po qd administered for 8 days; assay type: ADME, organism-based; design: route oral, dose 6 mg/kg, time 8 day; settings: in vivo
[3] = Half life in mouse liver S9 fraction at 1 uM in presence of NADPH incubated upto 120 mins by LC-MS/MS analysis; assay type: ADME, subcellular
[4] = Half life in dog liver S9 fraction at 1 uM in presence of NADPH incubated upto 120 mins by LC-MS/MS analysis; assay type: ADME, subcellular, Canis lupus familiaris
[5] = AUC (0-48 hrs) in mouse xenografted with human Huh-7 cells at 12 mg/kg, po administered every other day for 8 days; assay type: ADME, organism-based; design: route oral, time 8 day, dose 12 mg/kg; settings: in vivo
[6] = Apparent permeability of compound across basolateral to apical side in human Caco2 cells at 10 mM incubated for 120 mins by lucifer yellow based LC/MS/MS analysis; assay type: ADME, cell-based; settings: Caco-2
[7] = Volume of distribution at steady state in female Balb/c mouse at 1 mg/kg, iv or 3 mg/kg, po; assay type: ADME, organism-based; settings: in vivo, read-out: Vdss
[8] = Oral bioavailability in female Balb/c mouse at 3 mg/kg; assay type: ADME, organism-based; settings: in vivo
[9] = AUC (0-48 hrs) in mouse xenografted with human Huh-7 cells at 6 mg/kg, po qd administered for 8 days; assay type: ADME, organism-based; design: route oral, time 8 day, dose 6 mg/kg; settings: in vivo
[10] = Thermodynamic solubility of compound in phosphate buffer at pH 6.8 measured after 15 mins by shake-flask method based LC-HRMS analysis; assay type: physicochemical; settings: read-out: Therm_solubility
[11] = Half life in human intestinal S9 fraction in presence of NADPH; assay type: ADME, subcellular, Intestine
[12] = Half life in rat intestinal S9 fraction in presence of NADPH; assay type: ADME, subcellular, Intestine
[13] = Half life in rat liver S9 fraction at 1 uM in presence of NADPH incubated upto 120 mins by LC-MS/MS analysis; assay type: ADME, subcellular
[14] = Oral bioavailability in Beagle dog at 0.3 mg/kg by LC-MS/MS analysis; assay type: ADME, organism-based, Canis lupus familiaris; settings: Beagle, in vivo
[15] = Volume of distribution at steady state in Crl:CD (SD) rat at 1 mg/kg, iv or 3 mg/kg, po measured upto 24 hrs by LC-MS/MS analysis; assay type: ADME, organism-based; settings: in vivo, read-out: Vdss
[16] = Clearance in dog cryopreserved hepatocytes at 1 uM incubated from 1 to 80 mins by LC-MS/MS analysis; assay type: ADME, cell-based, Canis lupus familiaris, Hepatocyte; settings: time 1-80 min
[17] = Clearance in rat cryopreserved hepatocytes at 1 uM incubated from 1 to 80 mins by LC-MS/MS analysis; assay type: ADME, cell-based, Hepatocyte; settings: time 1-80 min
[18] = Clearance in mouse liver microsome at 10 mM measured after 15 mins in presence of NADPH by LC-MS analysis; assay type: ADME; settings: liver microsomes, read-out: CLH
[19] = Clearance in Sprague-Dawley rat at 0.5 mg/kg, iv or 3 mg/kg, po measured upto 24 hrs by LC-MS/MS analysis; assay type: ADME, organism-based; settings: in vivo
[20] = Cmax in mouse xenografted with human Huh-7 cells at 3 mg/kg, po BID administered for 8 days; assay type: ADME, organism-based; design: route oral, time 8 day, dose 3 mg/kg; settings: in vivo
[21] = Oral bioavailability in Crl:CD (SD) rat at 3 mg/kg measured upto 24 hrs by LC-MS/MS analysis; assay type: ADME, organism-based; settings: Crl:CD (SD), in vivo
[22] = Half life in dog intestinal S9 fraction in presence of NADPH; assay type: ADME, subcellular, Canis lupus familiaris, Intestine; settings: time 120 min
[23] = Cmax in mouse xenografted with human Huh-7 cells at 12 mg/kg, po administered every other day for 8 days; assay type: ADME, organism-based; design: route oral, time 8 day, dose 12 mg/kg; settings: in vivo
[24] = Half-life in Beagle dog at 0.1 mg/kg, iv or 0.3 mg/kg, po by LC-MS/MS analysis; assay type: ADME, organism-based, Canis lupus familiaris; settings: in vivo
[25] = Volume of distribution at steady state in Beagle dog at 0.1 mg/kg, iv or 0.3 mg/kg, po by LC-MS/MS analysis; assay type: ADME, organism-based, Canis lupus familiaris; settings: in vivo, read-out: Vdss
[26] = Clearance in mouse cryopreserved hepatocytes at 1 uM incubated from 1 to 80 mins by LC-MS/MS analysis; assay type: ADME, cell-based, Hepatocyte; settings: time 1-80 min
[27] = Clearance in rat liver microsome at 10 mM measured after 15 mins in presence of NADPH by LC-MS analysis; assay type: ADME; settings: liver microsomes, read-out: CLH
[28] = Apparent permeability of compound across apical to basolateral side in human Caco2 cells at 10 mM incubated for 120 mins by lucifer yellow based LC/MS/MS analysis; assay type: ADME, cell-based; settings: Caco-2
[29] = Clearance in human cryopreserved hepatocytes at 1 uM incubated from 1 to 80 mins by LC-MS/MS analysis; assay type: ADME, cell-based, Hepatocyte; settings: time 1-80 min
[30] = Dissociation constant, pKa of compound by potentiometric titration method; assay type: physicochemical
[31] = Half life in mouse intestinal S9 fraction in presence of NADPH; assay type: ADME, subcellular, Intestine
[32] = AUC (0-48 hrs) in mouse xenografted with human Huh-7 cells at 3 mg/kg, po BID administered for 8 days; assay type: ADME, organism-based; design: route oral, dose 3 mg/kg, time 8 day; settings: in vivo, 192 h
[33] = Half-life in female Balb/c mouse at 1 mg/kg, iv or 3 mg/kg, po; assay type: ADME, organism-based; settings: in vivo
[34] = Half-life in Sprague-Dawley rat at 0.5 mg/kg, iv or 3 mg/kg, po measured upto 24 hrs by LC-MS/MS analysis; assay type: ADME, organism-based; settings: in vivo
[35] = Half life in human liver S9 fraction at 1 uM in presence of NADPH incubated upto 120 mins by LC-MS/MS analysis; assay type: ADME, subcellular
[36] = Clearance in dog liver microsome at 10 mM measured after 15 mins in presence of NADPH by LC-MS analysis; assay type: ADME, Canis lupus familiaris; settings: liver microsomes, read-out: CLH
[37] = Clearance in Beagle dog at 0.1 mg/kg, iv or 0.3 mg/kg, po by LC-MS/MS analysis; assay type: ADME, organism-based, Canis lupus familiaris; settings: in vivo
[38] = Drug metabolism in rat liver microsomes assessed as N-(5-cyanopyridin-2-yl)-7-formyl-3,4-dihydro-1,8-naphthyridine-1(2H)-carboxamide metabolite formation in presence of NADPH by LC-MS analysis; assay type: ADME, Microsome
[39] = Drug metabolism in Crl:CD (SD) rat at 1 mg/kg, iv assessed as N-(5-cyanopyridin-2-yl)-7-formyl-3,4-dihydro-1,8-naphthyridine-1(2H)-carboxamide metabolite formation by LC-MS/MS analysis; assay type: ADME, organism-based; settings: in vivo

microsomal CLint at […], 10000 µM [1]: 29 µL/min/mg | Cmax [2]: 770 nM | half-life at 1 µM [3]: > 120 min | half-life at 1 µM [4]: 52 min | AUC at 192 h [5]: 7.2 µM·h | Papp B→A at 2 h, 10000 µM [6]: 11 ×10⁻⁶ cm/s | Vd [7]: 2.3 L/kg | F [8]: 20% | AUC at 192 h [9]: 5.2 µM·h | solubility thermodynamic at […] [10]: 16 µM (≈ 8.12 µg/mL) | half-life [11]: > 120 min | half-life [12]: > 120 min | half-life at 1 µM [13]: > 120 min | bioavailability [14]: 69% | Vd [15]: 3.9 L/kg | CLH [16]: 6.5 µL/min/mg | CLH [17]: 11 µL/min/mg | microsomal CLint at […], 10000 µM [18]: 18 µL/min/mg | clearance [19]: 19 mL/min/kg | Cmax [20]: 180 nM | bioavailability [21]: 20% | half-life at 1 µM [22]: > 120 min | Cmax [23]: 1260 nM | half-life [24]: 390 min | Vd [25]: 3 L/kg | CLH [26]: 2.5 µL/min/mg | microsomal CLint at […], 10000 µM [27]: 18 µL/min/mg | Papp A→B at 2 h, 10000 µM [28]: 7.4 ×10⁻⁶ cm/s | CLH [29]: 5.7 µL/min/mg | pKa [30]: 5.3 | half-life [31]: > 120 min | AUC [32]: 3.6 µM·h | half-life [33]: 84 min | half-life [34]: 264 min | half-life at 1 µM [35]: > 120 min | microsomal CLint at […], 10000 µM [36]: 34 µL/min/mg | clearance [37]: 8 mL/min/kg
SMILES: COCCOc1cc(NC(=O)N2CCCc3cc(CN4CCN(C)CC4=O)c(C=O)nc32)ncc1C#N

Drug metabolism [38]: 1.3 nM | Drug metabolism [39]: 1.3 nM
SMILES: N#Cc1ccc(NC(=O)N2CCCc3ccc(CO)nc32)nc1
